# Patent US20040228844A1, “Method for controlling harmful plant-parasitic nematodes” (priority 2003, published 2004)
# How the values were obtained:
# Meloidogyne incognita [1] = test: Test Example 2: gall control on cucumber seedlings in nematode-infested soil; assay type: in vivo; settings: 20 kg /1000 m^2, 32 days after transplantation, (C−S)×100/C
# Experimental: To 3 kg of the Meloidogyne incognita-infested soil was applied each (100 mL) of the test solutions diluted at given concentrations and then the resulting soil was thoroughly mixed.
# The gall control value was calculated by the following equation:
# Gall control value=(C−S)×100/C
# wherein C is an average gall number per plant in a non-treated group, and S is an average gall number per plant in a treated group.
# Meloidogyne incognita [2] = test: Test Example 1: root-knot damage of cucumber seedlings in nematode-infested soil; settings: 20 kg per 1000 m^2, soil mixing, 50 days after transplantation, scale 0 (no root-knots) to 5 (dead), average per 10 plants
# Experimental: To 5 kg of nematode-infested soil (nematode density: 2255 nematodes per 20 g (investigation method: Bellman's method)) in which Meloidogyne incognita seriously grew was applied each (100 mL) of the test solutions diluted at given concentrations: and then the resulting soil was thoroughly mixed. […] (diameter: about 3 mm), 500 g of each of the soil to which each test solution was applied and mixed was placed. Cucumber seedlings (14 days after sowing, 2 plants per cup, 5 replications) were transplanted in the cup, which contained each treated soil. After transplantation, the plants were left in a glass greenhouse.
# The degree of root-knot damages was evaluated according to the following criteria:
# 5: The plant is withered and dead due to parasitism of nematodes.
# 4: A number of root-knots, which range to form-large root-knots, are observed on the entire roots.
# 3: Root-knots are observed on the entire roots, and large root-knots being partly formed.
# 2: Formation of root-knots is partly observed on the root, and some of them ranging, but no large root-knot is observed.
# 1: A little formation of root-knots is observed.
# 0: No formation of root-knots is found.
smiles,measurement,setting,value
"CSCC[C@H](N)C(=O)O [Component A Agent, methionine]",Gall Control Value,Meloidogyne incognita [1],44
same,Average Degree of Root-Knots Damages,Meloidogyne incognita [2],3.2
